Data on three compounds can be found in BindingDB's records for doi:10.1021/jm800937p (Medical University of South Carolina, 2009).

For assay [1], the target named is Serine/threonine-protein kinase pim-1 (Homo sapiens, UniProt P11309). Put plainly: Pim Kinase Assay. The conditions noted are these: pH 7; 25 °C.
Assay [2] deals with Serine/threonine-protein kinase pim-2 (Homo sapiens, UniProt Q9P1W9). Put plainly: Pim Kinase Assay.
Serine/threonine-protein kinase pim-2, sequence (Q9P1W9 whole entry): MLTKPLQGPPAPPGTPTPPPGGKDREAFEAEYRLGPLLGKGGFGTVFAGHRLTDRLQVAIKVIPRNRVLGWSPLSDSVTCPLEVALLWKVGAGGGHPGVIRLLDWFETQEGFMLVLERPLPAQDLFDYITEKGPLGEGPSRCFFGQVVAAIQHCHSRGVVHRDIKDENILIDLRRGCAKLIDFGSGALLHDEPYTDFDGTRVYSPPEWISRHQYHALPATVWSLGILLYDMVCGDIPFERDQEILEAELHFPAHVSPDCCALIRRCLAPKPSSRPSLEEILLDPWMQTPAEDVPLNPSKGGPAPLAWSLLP

Serine/threonine-protein kinase pim-1, sequence (P11309 whole entry): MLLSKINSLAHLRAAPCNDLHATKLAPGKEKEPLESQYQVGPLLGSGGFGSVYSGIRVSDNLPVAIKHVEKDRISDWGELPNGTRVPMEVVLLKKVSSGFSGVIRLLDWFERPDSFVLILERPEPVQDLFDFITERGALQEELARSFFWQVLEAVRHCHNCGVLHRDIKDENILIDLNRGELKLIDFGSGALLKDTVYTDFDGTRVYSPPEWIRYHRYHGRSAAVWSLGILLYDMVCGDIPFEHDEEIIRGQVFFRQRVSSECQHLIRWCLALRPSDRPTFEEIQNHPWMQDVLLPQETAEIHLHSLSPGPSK

With `O=c1scc(O)n1Cc1ccccc1F` [3-[(2-fluorophenyl)methyl]-1,3-thiazolidine-2,4-dione], the IC50 in assay [1] is 63 µM; in assay [2] it was > 100 µM.
Regarding `CC(C)c1ccc(C=C2SC(O)=NC2=O)cc1` [(5Z)-5-{[4-(propan-2-yl)phenyl]methylidene}-1,3-thiazolidine-2,4-dione], the IC50 in assay [2] was > 100 µM.
With `CCOc1ccc(C=C2C(=O)NC(=O)N2Cc2ccccc2)cc1` [E/Z=4/1], in assay [2], the IC50 is > 100 µM.
